pIC50: −log10 of the molar value. Read-outs that look alike come from different tables or passages of the source. A value given as a limit tells only on which side of the number the result lay.

This note sets out measurements from patent publication US20250188075A1, “SUBSTITUTED HETEROCYCLIC CSNK1 INHIBITORS” (The Broad Institute, Inc., priority 2022, published 2025).

A short description of data set [1]: Solubility assay (thermodynamic solubility). The format is physicochemical. The settings on record: aqueous buffer; for solubility thermodynamic at 24 h: thermodynamic from solid, mean; for Thermodynamic Solubility [mg/l] (mean) / Thermodynamic Solubility [μmol/L] (mean): 24 h. The protocol: Solubility of solid compound in aqueous buffer was determined by an equilibrium shake flask method. A saturated solution of drug in solvent (˜2 mg/ml solvent) was prepared and the solution was mixed for 24 h to ensure that equilibrium has been reached. The solution was centrifuged to remove the insoluble fraction and the concentration of the compound in solution was determined by HPLC-UV using a standard calibration curve (Kerns, E. H. et al., Solubility Methods in: Drug-like Properties: Concepts, Structure Design and Methods, p 276-286. Burlington, MA: Academic Press 2008).

In data set [2] the target is human CSNK1D (Homo sapiens (Human), UniProt P48730). Kind of data set: CSNK1D assay (ADP-Glo, 1 μM ATP). It counts as biochemical. Conditions: median, read-out: CSNK1D IC50 [mol/l] (median). Here is the method:
CSNK1D-inhibitory activity of compounds of the present invention in presence of 1 μM adenosine-tri-phosphate (ATP) was quantified employing the CSNK1D assay as described in the following paragraphs. In essence, the enzyme activity is measured by quantification of the adenosine-di-phosphate (ADP), which is generated as a co-product of the enzyme reaction, via the “ADP-Glo™ Kinase Assay” kit from the company Promega. This detection system works as follows: In a first step the ATP not consumed in the kinase reaction is quantitatively converted to CAMP employing an adenylate cyclase (“ADP-Glo-reagent”), then the adenylate cyclase is stopped and the ADP generated in the kinase reaction converted to ATP which generates in a luciferase-based reaction a glow-luminescence signal (“Kinase Detection Reagent”).
Recombinant fusion protein of N-terminal Glutathion-S-Transferase (GST) and full-length human CSNK1D, expressed by baculovirus infected insect cells and purified via Glutathion affinity chromatography, was purchased from Life Technologies (product no. PV3665) and used as enzyme. As substrate for the kinase reaction the biotinylated peptide Btn-Ahx-SGSEGDSESGEEEG (C-terminus in amide form) was used which can be purchased e.g. from the company Biosyntan (Berlin-Buch, Germany).
For the assay 50 nl of a 100-fold concentrated solution of the test compound in DMSO was pipetted into a white 1536-well microtiter plate (Greiner Bio-One, Frickenhausen, Germany), 2 μL of a solution of CSNK1D in aqueous assay buffer [50 mM HEPES pH 7.5, 10% (v/v) glycerol, 10 mM MgCl2, 50 mM NaCl, 1 mM dithiothreitol, 0.01% (w/v) bovine serum albumin, 0.01% (v/v) Triton X-100] were added and the mixture was incubated for 15 min at 22° C. to allow pre-binding of the test compounds to the enzyme before the start of the kinase reaction. Then the kinase reaction was started by the addition of 3 μL of a solution of ATP (1.67 μM=>final conc. in the 5 μL assay volume is 1 μM) and peptide substrate (50 μM=>final conc. in the 5 μL assay volume is 30 μM) in assay buffer and the resulting mixture was incubated for a reaction time of 30 min at 22° C. The concentration of CSNK1D was adjusted depending of the activity of the enzyme lot and was chosen appropriate to have the assay in the linear range, a typical concentration is about 0.5 ng/μL. The reaction was stopped by the addition of 2.5 μL of “ADP-Glo-reagent” (1:1.5 fold diluted with water) and the resulting mixture was incubated at 22° C. for 1 h to convert the ATP not consumed in the kinase reaction completely to CAMP. Subsequently 2.5 μL of the “kinase detection reagent” (1.2 fold more concentrated than recommended by the producer) were added, the resulting mixture was incubated at 22° C. for 1 h and then the luminescence measured with a suitable measurement instrument (e.g. Viewlux™ from Perkin-Elmer). The amount of emitted light was taken as a measure for the amount of ADP generated and thereby for the activity of the CSNK1D.
The data were normalised (enzyme reaction without inhibitor=0% inhibition, all other assay components but no enzyme=100% inhibition).
In general terms: ADP-Glo first removes unused ATP, then detects ADP through luciferase.

Data set [3] concerns HT-29 cells. Kind of data set: HT29 cell proliferation assay, CTG method. It counts as cell-based. Conditions: HT-29, CTG, 96 h, median, read-out: 2D-PROLI HT-29 CTG 96 h, IC50 - [mol/l] (median). The protocol: CELL PROLIFERATION ASSAY CTG METHOD, 384-well version: Day 1: plated 400 cells/30 μL/well in growth medium (DMEM/Ham's F12; (Biochrom; #FG 4815, mit stabilem Glutamin)+FCS (final: 10%); (Biochrom; #S 0415)) in 384-well black plates (Corning #3571). Plated sister wells in a separate plate for time zero determination. Incubated all plates overnight at 37° C. Day 2: added test compounds in serial dilutions using the HP D300 Digital Dispenser and incubated at 37° C. for 96 h. Measured time zero plate: add 30 μL/well CTG solution (Promega CellTiter-Glo solution (catalog #G7573)) to wells in time zero plate; incubated for 2 minutes in a orbital shaker to induce cell lysis; allowed the plate to incubate at room temperature for additional 10 min to stabilize luminescent signal and read luminescence on PheraStar (rapid mode—0.02 sec/well; GAIN 3000). Day 6: Added 30 μL/well CTG solution to all test wells, incubated for 2 minutes in a orbital shaker to induce cell lysis; allowed the plate to incubate at room temperature for additional 10 min to stabilize luminescent signal and read luminescence on PheraStar (rapid mode—0.02 sec/well; GAIN 3000 Proliferation IC50s were calculated using the DRC application in ShiNy Analysis Platform-SNAP.”

The mark [4] stands for this setting: read-out: Thermodynamic Solubility [mg/l] (mean).
Where [5] appears, read: read-out: Thermodynamic Solubility [μmol/L] (mean).

Sequence of human CSNK1D (P48730 whole entry): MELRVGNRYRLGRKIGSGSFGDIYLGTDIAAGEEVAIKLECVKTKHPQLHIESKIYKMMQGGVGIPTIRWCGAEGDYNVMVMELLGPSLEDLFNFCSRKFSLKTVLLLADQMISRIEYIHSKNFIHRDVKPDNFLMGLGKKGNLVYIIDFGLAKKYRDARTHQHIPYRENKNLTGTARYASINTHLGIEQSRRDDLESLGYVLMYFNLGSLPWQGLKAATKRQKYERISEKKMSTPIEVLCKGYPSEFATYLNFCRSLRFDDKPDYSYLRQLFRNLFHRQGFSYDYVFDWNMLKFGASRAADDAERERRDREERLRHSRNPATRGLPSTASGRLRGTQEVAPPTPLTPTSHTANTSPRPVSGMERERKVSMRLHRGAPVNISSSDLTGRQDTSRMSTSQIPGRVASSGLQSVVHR

With `Cn1cc(C(CC(F)F)C(=O)Nc2cc(-c3[nH]c4cccnc4c3-c3ccccn3)ccn2)cn1` (stereo not drawn) [Example 19, 4,4-difluoro-2-(1-methylpyrazol-4-yl)-N-[4-[3-(2-pyridyl)-^1H-pyrrolo[3,2-b]pyridin-2-yl]-2-pyridyl]butanamide], the solubility thermodynamic at 24 h in data set [1] (setting [4]) was 84 mg/L; in data set [1] (setting [5]) it was 177 µmol/L. For the same molecule, the values for the pIC50 in data set [2] and in data set [3] (Homo sapiens) were 7.86 and 5.91, respectively.
As for `O=C(Cc1ccn(CC(F)(F)F)n1)Nc1cc(-c2[nH]c3cccnc3c2-c2ccccn2)ccn1` [Example 20, N-[4-[3-(2-pyridyl)-^1H-pyrrolo[3,2-b]pyridin-2-yl]-2-pyridyl]-2-[1-(2,2,2-trifluoroethyl)pyrazol-3-yl]acetamide], the solubility thermodynamic at 24 h in data set [1] (setting [4]) came to 23.9 mg/L; in data set [1] (setting [5]), 50.1 µmol/L. Also, the pIC50 in data set [2] was 8.31; in data set [3] (Homo sapiens) it was 6.47.
Take `Cn1nc(CC(=O)Nc2cc(-c3[nH]c4cccnc4c3-c3ccccn3)ccn2)cc1C(F)(F)F` [Example 21, 2-[1-methyl-5-(trifluoromethyl)pyrazol-3-yl]-N-[4-[3-(2-pyridyl)-^1H-pyrrolo[3,2-b]pyridin-2-yl]-2-pyridyl]acetamide]: the solubility thermodynamic at 24 h was less than 0.1 mg/L in data set [1] (setting [4]) and less than 0.21 µmol/L in data set [1] (setting [5]). Further, the pIC50 is 8.31 in data set [2] and 6.65 in data set [3] (Homo sapiens).
`O=C(Cc1ccns1)Nc1cc(-c2[nH]c3cccnc3c2-c2ccccn2)ccn1` [Example 22, 2-isothiazol-5-yl-N-[4-[3-(2-pyridyl)-^1H-pyrrolo[3,2-b]pyridin-2-yl]-2-pyridyl]acetamide]: the values for the solubility thermodynamic at 24 h in data set [1] (setting [4]) and in data set [1] (setting [5]) were 12.6 mg/L and 30.6 µmol/L, respectively. Besides, the pIC50 in data set [2] is 8.32; in data set [3] (Homo sapiens) it was 6.47.
Turning to `O=C(Cc1ccno1)Nc1cc(-c2[nH]c3cccnc3c2-c2ccccn2)ccn1` [Example 23, 2-isoxazol-5-yl-N-[4-[3-(2-pyridyl)-^1H-pyrrolo[3,2-b]pyridin-2-yl]-2-pyridyl]acetamide], the figures for the solubility thermodynamic at 24 h in data set [1] (setting [4]) and in data set [1] (setting [5]) were 59.5 mg/L and 150 µmol/L, respectively. Moreover, the results for the pIC50 in data set [2] and in data set [3] (Homo sapiens) were 8.33 and 6.11, respectively.
For `Cc1ncc(CC(=O)Nc2cc(-c3[nH]c4cccnc4c3-c3ccccn3)ccn2)o1` [Example 24, 2-(2-methyloxazol-5-yl)-N-[4-[3-(2-pyridyl)-^1H-pyrrolo[3,2-b]pyridin-2-yl]-2-pyridyl]acetamide], the solubility thermodynamic at 24 h in data set [1] (setting [4]) came to 26.3 mg/L; in data set [1] (setting [5]), 64.1 µmol/L. In addition, the values for the pIC50 in data set [2] and in data set [3] (Homo sapiens) were 8.27 and 6.32, respectively.
As to `Cc1nc(CC(=O)Nc2cc(-c3[nH]c4cccnc4c3-c3ccccn3)ccn2)co1` [Example 25, 2-(2-methyloxazol-4-yl)-N-[4-[3-(2-pyridyl)-^1H-pyrrolo[3,2-b]pyridin-2-yl]-2-pyridyl]acetamide], the solubility thermodynamic at 24 h in data set [1] (setting [4]) amounted to 23.1 mg/L; in data set [1] (setting [5]), 56.3 µmol/L. The results for the pIC50 in data set [2] and in data set [3] (Homo sapiens) were 8.07 and 6.20, respectively.
For the molecule `Cc1cc(CC(=O)Nc2cc(-c3[nH]c4cccnc4c3-c3ccccn3)ccn2)no1` [Example 26, 2-(5-methylisoxazol-3-yl)-N-[4-[3-(2-pyridyl)-^1H-pyrrolo[3,2-b]pyridin-2-yl]-2-pyridyl]acetamide], the solubility thermodynamic at 24 h in data set [1] (setting [4]) is 6.1 mg/L; in data set [1] (setting [5]), 14.9 µmol/L. The figures for the pIC50 in data set [2] and in data set [3] (Homo sapiens) were 8.18 and 6.33, respectively.
Regarding `O=C(Cc1cc(C2CC2)on1)Nc1cc(-c2[nH]c3cccnc3c2-c2ccccn2)ccn1` [Example 27, 2-(5-cyclopropylisoxazol-3-yl)-N-[4-[3-(2-pyridyl)-^1H-pyrrolo[3,2-b]pyridin-2-yl]-2-pyridyl]acetamide], the solubility thermodynamic at 24 h in data set [1] (setting [4]) is less than 0.1 mg/L; in data set [1] (setting [5]) it was less than 0.23 µmol/L. The pIC50 is 8.20 in data set [2] and 6.47 in data set [3] (Homo sapiens).
In the case of `CC(C)n1ccc(CC(=O)Nc2cc(-c3[nH]c4cccnc4c3-c3ccccn3)ccn2)n1` [Example 28, 2-(1-isopropylpyrazol-3-yl)-N-[4-[3-(2-pyridyl)-^1H-pyrrolo[3,2-b]pyridin-2-yl]-2-pyridyl]acetamide], the solubility thermodynamic at 24 h in data set [1] (setting [4]) is less than 0.1 mg/L; in data set [1] (setting [5]), less than 0.23 µmol/L. The pIC50 is 8.20 in data set [2] and 6.50 in data set [3] (Homo sapiens).
With `Cn1nc(CC(=O)Nc2cc(-c3[nH]c4cccnc4c3-c3ccccn3)ccn2)cc1C1CC1` [Example 29, 2-(5-cyclopropyl-1-methyl-pyrazol-3-yl)-N-[4-[3-(2-pyridyl)-^1H-pyrrolo[3,2-b]pyridin-2-yl]-2-pyridyl]acetamide], the solubility thermodynamic at 24 h is less than 0.1 mg/L in data set [1] (setting [4]) and less than 0.22 µmol/L in data set [1] (setting [5]). Moreover, the pIC50 in data set [2] is 8.19; in data set [3] (Homo sapiens) it was 6.47.
As to `Cc1nocc1CC(=O)Nc1cc(-c2[nH]c3cccnc3c2-c2ccccn2)ccn1` [Example 30, 2-(3-methylisoxazol-4-yl)-N-[4-[3-(2-pyridyl)-^1H-pyrrolo[3,2-b]pyridin-2-yl]-2-pyridyl]acetamide], the results for the solubility thermodynamic at 24 h in data set [1] (setting [4]) and in data set [1] (setting [5]) were 5.8 mg/L and 14.1 µmol/L, respectively. Further, the pIC50 in data set [2] is 8.17; in data set [3] (Homo sapiens), 5.78.
Consider `O=C(Nc1cc(-c2[nH]c3nccnc3c2-c2ccccn2)ccn1)[C@@H](CC(F)F)c1ccc(F)cc1` [Example C1, reference compound], for which, in data set [1], the “Thermodynamic Solubility [mg/l] (mean)” value came to 9.60 mg/L and the “Thermodynamic Solubility [μmol/L] (mean)” value came to 21.55 µmol/L. Also, in data set [2], the pIC50 was 8.41. Besides, the pIC50 in data set [3] is 6.69.
As to `O=C(Nc1cc(-c2[nH]c3ccc(F)nc3c2-c2ccccn2)ccn1)[C@@H](CC(F)F)c1ccc(F)cc1` [Example C2, reference compound], in data set [1], the “Thermodynamic Solubility [mg/l] (mean)” value was 0.20 mg/L and the “Thermodynamic Solubility [μmol/L] (mean)” value is 0.40 µmol/L. For the same molecule, the pIC50 in data set [2] is 8.65. Besides, in data set [3], the pIC50 was 7.05.
On the same counts, the results for `O=C(Nc1cc(-c2[nH]c3c(OCC(F)F)ncnc3c2-c2ccccn2)ccn1)[C@@H](CC(F)F)c1ccc(F)cc1` [Example C3, reference compound] are less than 0.10 mg/L, less than 0.18 µmol/L, 8.49 and 6.96.
